Values joined by “and” are separate entries in the source; they are usually repeats but may differ in a detail not shown here. Equal entries are not always repeated. Inconclusive results and toxic doses are left out.

This experiment has as its system L1210 leukemia ip in BDF1 mice, survival T/C. Briefly: NCI In Vivo Anticancer Drug Screen. Data for tumor model L1210 Leukemia (intraperitoneal) in B6D2F1 (BDF1) mice. Particulars: endpoint: mean survival time, higher = longer survival. In a few lines:
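Each compound was tested against a transplantable tumor grown in mice. The endpoint was survival, with treated animals benchmarked against vehicle controls as a simple ratio.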

[1] abbreviates: dose: 100.0 mg/kg/injection, schedule: Q01DX001 (ip), vehicle: Klucel (hydroxypropylcellulose) (HPC).
The mark [2] stands for this setting: dose: 100.0 mg/kg/injection, schedule: Q04DX003 (ip), vehicle: saline.
[3] abbreviates: dose: 200.0 mg/kg/injection, schedule: Q04DX003 (ip), vehicle: saline.
Setting [4] is: dose: 400.0 mg/kg/injection, schedule: Q04DX003 (ip), vehicle: saline.

Regarding `O=[N+]([O-])c1cccc(C=Nc2ccccc2Cl)c1`, the T/C is, setting by setting: under setting [1], 101 % of control and 103 % of control; (dose: 200.0 mg/kg/injection, schedule: Q01DX001 (ip), vehicle: Klucel (hydroxypropylcellulose) (HPC)) 101 % of control; (dose: 400.0 mg/kg/injection, schedule: Q01DX001 (ip), vehicle: Klucel (hydroxypropylcellulose) (HPC)) 101 % of control and 103 % of control.
Turning to `CC(=O)OC1CC2CC1C1C3C=CC(C3)C21` (centres undefined), the T/C by setting is: (dose: 100.0 mg/kg/injection, schedule: Q01DX001 (ip), vehicle: saline) 98 % of control; (dose: 200.0 mg/kg/injection, schedule: Q01DX001 (ip), vehicle: saline) 95 % of control; (dose: 400.0 mg/kg/injection, schedule: Q01DX001 (ip), vehicle: saline) 106 % of control.
In the case of `O=C(/C=C/c1c(Cl)cccc1Cl)c1ccc(Cl)cc1`, the T/C was 98 % of control (dose: 100.0 mg/kg/injection, schedule: Q01DX009 (ip), vehicle: saline with Tween-80); 90 % of control (dose: 100.0 mg/kg/injection, schedule: Q04DX003 (ip), vehicle: saline with Tween-80); 95 % of control (dose: 200.0 mg/kg/injection, schedule: Q01DX009 (ip), vehicle: saline with Tween-80); 90 % of control (dose: 200.0 mg/kg/injection, schedule: Q04DX003 (ip), vehicle: saline with Tween-80); 90 % of control (dose: 400.0 mg/kg/injection, schedule: Q01DX009 (ip), vehicle: saline with Tween-80); 91 % of control (dose: 400.0 mg/kg/injection, schedule: Q04DX003 (ip), vehicle: saline with Tween-80).
Turning to `Cc1ccc(NC(=O)N(CCCl)N=O)cc1NC(=O)c1ccccc1`, the T/C (dose: 0.22 mg/kg/injection, schedule: Q01DX009 (ip), vehicle: carboxymethylcellulose (CMC)) was 103 % of control; the T/C (dose: 0.45 mg/kg/injection, schedule: Q01DX009 (ip), vehicle: carboxymethylcellulose (CMC)) is 103 % of control; the T/C (dose: 1.8 mg/kg/injection, schedule: Q01DX009 (ip), vehicle: carboxymethylcellulose (CMC)) is 180 % of control; the T/C (dose: 2.6 mg/kg/injection, schedule: Q01DX009 (ip), vehicle: carboxymethylcellulose (CMC)) was 175 % of control; the T/C (dose: 3.0 mg/kg/injection, schedule: Q01DX009 (ip), vehicle: carboxymethylcellulose (CMC)) is 164 % of control; the T/C (dose: 4.0 mg/kg/injection, schedule: Q01DX009 (ip), vehicle: carboxymethylcellulose (CMC)) was 151 % of control. Besides, the T/C (dose: 6.6 mg/kg/injection, schedule: Q01DX009 (ip), vehicle: carboxymethylcellulose (CMC)) was 179 % of control; the T/C (dose: 10.0 mg/kg/injection, schedule: Q01DX009 (ip), vehicle: carboxymethylcellulose (CMC)) was 194 % of control; the T/C (dose: 15.0 mg/kg/injection, schedule: Q01DX009 (ip), vehicle: carboxymethylcellulose (CMC)) is 183 % of control; the T/C (dose: 23.0 mg/kg/injection, schedule: Q01DX009 (ip), vehicle: carboxymethylcellulose (CMC)) is 243 % of control; the T/C (dose: 34.0 mg/kg/injection, schedule: Q01DX009 (ip), vehicle: carboxymethylcellulose (CMC)) is 186 % of control; the T/C (dose: 52.0 mg/kg/injection, schedule: Q01DX009 (ip), vehicle: carboxymethylcellulose (CMC)) was 178 % of control. Also, the T/C reads like this: (dose: 78.0 mg/kg/injection, schedule: Q01DX001 (ip), vehicle: Klucel (hydroxypropylcellulose) (HPC)) 155 % of control; (dose: 78.0 mg/kg/injection, schedule: Q01DX009 (ip), vehicle: carboxymethylcellulose (CMC)) 205 % of control; (dose: 118.0 mg/kg/injection, schedule: Q01DX001 (ip), vehicle: Klucel (hydroxypropylcellulose) (HPC)) 159 % of control; (dose: 177.0 mg/kg/injection, schedule: Q01DX001 (ip), vehicle: Klucel (hydroxypropylcellulose) (HPC)) 213 % of control; (dose: 266.0 mg/kg/injection, schedule: Q01DX001 (ip), vehicle: carboxymethylcellulose (CMC)) 154 % of control; (dose: 266.0 mg/kg/injection, schedule: Q01DX009 (ip), vehicle: carboxymethylcellulose (CMC)) 105 % of control. Also, the T/C by setting is: (dose: 400.0 mg/kg/injection, schedule: Q01DX001 (ip), vehicle: carboxymethylcellulose (CMC)) 150 % of control and 168 % of control; (dose: 400.0 mg/kg/injection, schedule: Q01DX009 (ip), vehicle: carboxymethylcellulose (CMC)) 98 % of control; (dose: 600.0 mg/kg/injection, schedule: Q01DX001 (ip), vehicle: carboxymethylcellulose (CMC)) 165 % of control.
With `OC(c1ccccc1)(c1ccccc1)c1cccnc1`, the T/C was 105 % of control (dose: 75.0 mg/kg/injection, schedule: Q04DX002 (ip), vehicle: saline) and 93 % of control (dose: 150.0 mg/kg/injection, schedule: Q04DX002 (ip), vehicle: saline).
As to `CC1=NCC[N-]CC[N-]CCN=C(C)C2CCCC1[N-]2.[Mn+3]`, the T/C (dose: 10.0 mg/kg/injection, schedule: Q01DX001 (ip), vehicle: saline) was 105 % of control; the T/C (dose: 20.0 mg/kg/injection, schedule: Q01DX001 (ip), vehicle: saline) was 102 % of control; the T/C (dose: 40.0 mg/kg/injection, schedule: Q01DX001 (ip), vehicle: saline) is 102 % of control.
`CC1(CCCOc2ccccc2C(=O)NCBr)N=C(N)N=C(N)N1c1ccccc1` (centres undefined): under setting [1], the T/C was 104 % of control.
`Cn1cc(/C=C/C(N)=O)c2nccnc21`: the T/C by setting is: (dose: 1.56 mg/kg/injection, schedule: Q01DX009 (ip), vehicle: water) 94 % of control; (dose: 3.12 mg/kg/injection, schedule: Q01DX009 (ip), vehicle: water) 92 % of control; (dose: 6.25 mg/kg/injection, schedule: Q01DX009 (ip), vehicle: water) 107 % of control; (dose: 12.5 mg/kg/injection, schedule: Q01DX009 (ip), vehicle: water) 103 % of control; (dose: 25.0 mg/kg/injection, schedule: Q01DX009 (ip), vehicle: water) 100 % of control and 110 % of control.
In the case of `C/C(=C/c1c(Br)cc(Br)c(N)c1Br)C(=O)O`, the T/C under setting [2] is 100 % of control, the T/C under setting [3] is 102 % of control and the T/C under setting [4] is 102 % of control.
As to `O=S(=O)(O)c1ccc(S)cc1`, the T/C (dose: 75.0 mg/kg/injection, schedule: Q01DX001 (ip), vehicle: other) was 117 % of control.
Consider `O=C(Nc1ccccc1)OC1CCCC2CCCCC21` (centres undefined), for which the T/C by setting is: (dose: 100.0 mg/kg/injection, schedule: Q04DX003 (ip), vehicle: Klucel (hydroxypropylcellulose) (HPC)) 96 % of control; (dose: 200.0 mg/kg/injection, schedule: Q04DX003 (ip), vehicle: Klucel (hydroxypropylcellulose) (HPC)) 96 % of control; (dose: 400.0 mg/kg/injection, schedule: Q04DX003 (ip), vehicle: Klucel (hydroxypropylcellulose) (HPC)) 93 % of control.
For the compound `COC(=O)c1ccc(O)cc1`, the T/C (dose: 100.0 mg/kg/injection, schedule: Q04DX002 (ip), vehicle: saline) is 96 % of control; the T/C (dose: 200.0 mg/kg/injection, schedule: Q04DX002 (ip), vehicle: saline) is 100 % of control; the T/C (dose: 400.0 mg/kg/injection, schedule: Q04DX002 (ip), vehicle: saline) is 100 % of control.
In the case of `O=C(Cn1cc(F)c(=O)[nH]c1=O)N1CCC2(CC1)SSC1(CCN(C(=O)Cn3cc(F)c(=O)[nH]c3=O)CC1)S2`, the T/C is, setting by setting: (dose: 100.0 mg/kg/injection, schedule: Q01DX009 (ip), vehicle: saline) 96 % of control; under setting [2], 104 % of control; (dose: 200.0 mg/kg/injection, schedule: Q01DX009 (ip), vehicle: saline) 96 % of control; under setting [3], 97 % of control; under setting [4], 97 % of control.
On to `O=C(Nc1ccc(C2=NCCN2)cc1)c1cc(C(=O)Nc2ccc(C3=NCCN3)cc2)cc([N+](=O)[O-])c1`, for which the T/C is, setting by setting: (dose: 111.0 mg/kg/injection, schedule: Q01DX Z (ip), vehicle: methylcellulose (MC)) 100 % of control; (dose: 167.0 mg/kg/injection, schedule: Q01DX Z (ip), vehicle: methylcellulose (MC)) 104 % of control; (dose: 250.0 mg/kg/injection, schedule: Q01DX Z (ip), vehicle: methylcellulose (MC)) 105 % of control and 207 % of control; (dose: 375.0 mg/kg/injection, schedule: Q01DX Z (ip), vehicle: methylcellulose (MC)) 168 % of control; (dose: 512.0 mg/kg/injection, schedule: Q01DX Z (ip), vehicle: methylcellulose (MC)) 234 % of control; (dose: 768.0 mg/kg/injection, schedule: Q01DX Z (ip), vehicle: methylcellulose (MC)) 268 % of control.
Take `CC1=C2C(=CC(C)(C)[C@@H]2O)C(=O)[C@](C)(O)C12CC2`: the T/C is 98 % of control (dose: 75.0 micrograms/kg/injection, schedule: Q01DX Z (ip), vehicle: saline); 104 % of control (dose: 150.0 micrograms/kg/injection, schedule: Q01DX Z (ip), vehicle: saline); 106 % of control (dose: 300.0 micrograms/kg/injection, schedule: Q01DX Z (ip), vehicle: saline); 106 % of control (dose: 600.0 micrograms/kg/injection, schedule: Q01DX Z (ip), vehicle: saline).
